Measurements reported in the NIST ThermoML archive (doi:10.1016/j.tca.2016.05.001).
Values joined by “and” are separate entries in the source; they are usually repeats but may differ in a detail not shown here. Equal entries are not always repeated.

Tests used:
[1] = Molar enthalpy of transition or fusion; details: Crystal; DSC

c1ccc2nc3ccccc3nc2c1 [phenazine]
Details | Molar enthalpy of transition or fusion [kcal/mol]
[1] | 4.61

Details | vapor or sublimation pressure
291.8 K, Crystal, Calculated from knudsen effusion weight loss | 9.4e-07 kPa
293.5 K, Crystal, Calculated from knudsen effusion weight loss | 1.3e-06 kPa
296.3 K, Crystal, Calculated from knudsen effusion weight loss | 1.6e-06 kPa
300.3 K, Crystal, Calculated from knudsen effusion weight loss | 2.9e-06 kPa
303.5 K, Crystal, Calculated from knudsen effusion weight loss | 4.7e-06 kPa
306.3 K, Crystal, Calculated from knudsen effusion weight loss | 6.1e-06 kPa
310.3 K, Crystal, Calculated from knudsen effusion weight loss | 1.1e-05 kPa
313.3 K, Crystal, Calculated from knudsen effusion weight loss | 1.81e-05 kPa
316.2 K, Crystal, Calculated from knudsen effusion weight loss | 2.24e-05 kPa and 2.6e-05 kPa
320.1 K, Crystal, Calculated from knudsen effusion weight loss | 3.8e-05 kPa and 4.6e-05 kPa
323.1 K, Crystal, Calculated from knudsen effusion weight loss | 6.6e-05 kPa
323.6 K, Crystal, Calculated from knudsen effusion weight loss | 6.5e-05 kPa
326.1 K, Crystal, Calculated from knudsen effusion weight loss | 8.9e-05 kPa
330 K, Crystal, Calculated from knudsen effusion weight loss | 0.00015 kPa
332.9 K, Crystal, Calculated from knudsen effusion weight loss | 0.000196 kPa
335.9 K, Crystal, Calculated from knudsen effusion weight loss | 0.000264 kPa
339.8 K, Crystal, Calculated from knudsen effusion weight loss | 0.0004 kPa
342.8 K, Crystal, Calculated from knudsen effusion weight loss | 0.00056 kPa
450.3 K, Liquid, Rate of evaporation | 2.018 kPa
451.4 K, Liquid, Rate of evaporation | 2.101 kPa
452.5 K, Liquid, Rate of evaporation | 2.186 kPa
454.8 K, Liquid, Rate of evaporation | 2.441 kPa
456.7 K, Liquid, Rate of evaporation | 2.618 kPa
458.9 K, Liquid, Rate of evaporation | 2.836 kPa
460.1 K, Liquid, Rate of evaporation | 3.041 kPa
462.6 K, Liquid, Rate of evaporation | 3.328 kPa
464.2 K, Liquid, Rate of evaporation | 3.533 kPa
466.7 K, Liquid, Rate of evaporation | 3.944 kPa
469.1 K, Liquid, Rate of evaporation | 4.316 kPa

Details | Triple point temperature [K]
Crystal, DSC | 446.4
